Source: patent US6627210B2, “Compositions containing α-2-adrenergic agonist components” (Allergan, Inc., priority 2000, dated 2003)
Where two headings read alike, the source gives them in different places. Marks after values point to notes of the source that are not given here.

Experiments:
[1] = composition including chlorite, equilibrated ten days
Method: Brimonidine tartrate is added to a test tube containing a composition including chlorite. The test tube was allowed to equilibrate for ten days. Samples obtained from the test tube is analyzed.

[2] = for Solubility: 23° C., stirred 2 days
Method: Table 1. It will be understood that concentrations of adrenergic agonists other than 0.5% may be used, so long as they have therapeutic activity. Likewise, the temperature may be varied, for example, solubility curves may be performed at 37° C. (98.6° F.). The formulation vehicle was prepared by first dissolving polyvinyl alcohol (PVA) in water. The PVA was added to approximately ⅓ of the required total amount of purified water with constant stirring. The slurry was stirred for 20-30 minutes and then heated to 80-95° C. with constant stirring. The mixture was removed from the heat source within 1 hour after having reached the temperature of 80-90° C. and stirred for an additional 10 minutes to ensure homogeneity (Part I). The other ingredients of the Ophthalmic Solution, except for Brimonidine tartrate, were dissolved in a separate container with an additional ⅓ of the required total amount of purified water (Part II). The PVA mixture (Part I) was then quantitatively transferred to Part II using several rinse volumes of purified water. The solution was adjusted to final volume with purified water without pH adjustment.
Brimonidine tartrate was weighed and transferred to a 10 mL test tube containing 5 mL of the formulation vehicle described above. The pH of each sample was then adjusted to a desired value using dilute sodium hydroxide and/or dilute hydrochloric acid. The samples were placed in a rack on a stir plate and stirred at high speed to achieve uniform mixing for 2 days; a partition was placed between the rack and the stir plate to prevent any heat diffusion from the stir plate to the samples.
At the end of two days of stirring, the pH value of each sample was measured, and then approximately 1 mL of each sample was placed in a micro centrifuge tube (polypropylene) and centrifuged at 4,000 rpm for 10 minutes. The supernatant was filtered through a 1 μm filter unit (Whatman, 13 mm, PTFE). The first 3-4 drops of the filtrate were discarded; the rest of the filtrate was received and diluted quantitatively with HPLC mobile phase. The dilute sample was then injected directly on the HPLC column (Dupont Zorbax, 250 mm×4.6 mm, 5 μm) for Brimonidine tartrate assay in order to quantify the amount of Brimonidine tartrate. A control of 10.05% Brimonidine tartrate was prepared in the formulation vehicle at pH 6.3-6.5 and assayed before (untreated) and after (treated) centrifugation and filtration. This was done to evaluate the potential loss of Brimonidine tartrate in these two steps of the sample preparation. To ensure reproducibility, the study was repeated on consecutive days.

[3] = for Solubility of Brimonidine tartrate: 0% CMC
Method: The pH-solubility profiles of Brimonidine tartrate in compositions (solutions) containing SECs and oxy-chloro components were determined. Particularly, the effects of sodium carboxymethylcellulose (CMC), an SEC, on the solubility of Brimonidine tartrate at various pH conditions were determined. The various concentrations of CMC tested with Brimonidine tartrate were 0%, 0.056%, 0.17%, 0.5%, 1.5% (w/v), Table III.
The samples tested also contained isotonic components, buffer components, and stabilized chlorine dioxide (Purite™), Table III. Sodium carboxymethyl-cellulose, sodium chloride, potassium chloride, calcium chloride dihydrate, and magnesium chloride hexahydrate were USP grade. Boric acid and sodium borate decahydrate were NF grade.
Each sample (1 through 5) was subjected to a range of pH's from about 7 to about 10. The vials containing the sample solutions were placed on a laboratory rotator and left for equilibration for fifteen days at room temperature (˜21° C.). The sample solutions were filtered using a 25 mm diameter polysulfone cellulose acetate syringe type filter with 0.45 μm pore size. The filtered solutions were assayed for Brimonidine.
Conventional HPLC and detection techniques were used to detect and determine the concentrations of soluble Brimonidine tartrate. […] The solubility is plotted against pH for each CMC concentration. The experimental data points were fitted to a modified Henderson-Hasselbalch equation using a nonlinear least squares routine (Deltagraph version 4.0 DeltaPoint, Inc.), FIG. 1.

Substance: tartrate of 5-bromo-6-(2-imidozolin-2-ylamino) quinoxaline [Brimonidine tartrate]
- formation of dimers [1]: a portion of the Brimonidine tartrate monomer units conjugated to form dimers
- Solubility ([2]; Study 1, pH 5.55, Ophthalmic Solution vehicle, theoretical concentration based on sample weight, solution clear): ≧164.4^b % w/v
- Solubility ([2]; Study 1, pH 5.92, Ophthalmic Solution vehicle): 132.6 % w/v
- Solubility ([2]; Study 1, pH 6.14, Ophthalmic Solution vehicle): 30.4 % w/v
- Solubility ([2]; Study 1, pH 6.57, Ophthalmic Solution vehicle): 7.55 % w/v
- Solubility ([2]; Study 1, pH 7.00, Ophthalmic Solution vehicle): 2.69 % w/v
- Solubility ([2]; Study 1, pH 7.45, Ophthalmic Solution vehicle): 1.17 % w/v
- Solubility ([2]; Study 1, pH 7.83, Ophthalmic Solution vehicle): 0.62 % w/v
- Solubility ([2]; Study 2, pH 5.50, Ophthalmic Solution vehicle, theoretical concentration based on sample weight, solution clear): ≧200.6^b % w/v
- Solubility ([2]; Study 2, pH 5.92, Ophthalmic Solution vehicle): 160.8 % w/v
- Solubility ([2]; Study 2, pH 6.06, Ophthalmic Solution vehicle): 50.1 % w/v
- Solubility ([2]; Study 2, pH 6.90, Ophthalmic Solution vehicle): 3.19 % w/v
- Solubility ([2]; Study 2, pH 7.40, Ophthalmic Solution vehicle): 1.19 % w/v
- Solubility ([2]; Study 2, pH 7.77, Ophthalmic Solution vehicle): 0.63 % w/v
- Solubility ([2]; Study 2, pH 7.86, Ophthalmic Solution vehicle): 0.58 % w/v
- Solubility ([2]; Study 2, pH 7.88, Ophthalmic Solution vehicle): 0.54 % w/v
- pH dependence of solubility ([2]; formulation vehicles, pH range of 5-8): highly pH-dependent
- Solubility of Brimonidine tartrate ([3]; pH 6.68, equilibrated fifteen days at room temperature (~21° C.)): 1.4256%
- Solubility of Brimonidine tartrate ([3]; pH 7.11, equilibrated fifteen days at room temperature (~21° C.)): 0.2064%
- Solubility of Brimonidine tartrate ([3]; pH 7.68, equilibrated fifteen days at room temperature (~21° C.)): 0.0786%
- Solubility of Brimonidine tartrate ([3]; pH 8.50, equilibrated fifteen days at room temperature (~21° C.)): 0.0286%
- Solubility of Brimonidine tartrate ([3]; pH 10.09, equilibrated fifteen days at room temperature (~21° C.)): 0.0218%
- soluble Brimonidine tartrate (FIG. 1) ([3]; pH 7.5, 0% CMC): 1000 ppm
- soluble Brimonidine tartrate (FIG. 1) ([3]; pH 7.5, 0.056% CMC): 1300 ppm
- soluble Brimonidine tartrate (FIG. 1) ([3]; pH 7.5, 0.17% CMC): 1300 ppm
- soluble Brimonidine tartrate (FIG. 1) ([3]; pH 7.5, 0.5% CMC): 1600 ppm
- soluble Brimonidine tartrate (FIG. 1) ([3]; pH 7.5, 1.5% CMC): about 1400 ppm
